Measurements from article PMC7126937 (Bioorganic & Medicinal Chemistry, 2014).
“And” between values parts separate entries of the source, which are not always exact repeats. Identical values can stand only once.

System: influenza virus A/California/7/09 (H1N1)pdm09
Assay type: cell-based, influenza virus A/California/07/09 (H1N1)pdm09

SMILES | ED50 (50% effective concentration; the concentration leading to 50% inhibition of virus replication)
CC1(C)[C@@H]2CC[C@@]1(C)[C@H](NCCCCCCCN[C@@H]1C[C@H]3CC[C@]1(C)C3(C)C)C2 [Compound 3c, N^1,N^7-bis((1R,2R,4R)-1,7,7-trimethylbicyclo[2.2.1]heptan-2-yl)heptane-1,7-diamine] | 3.2 µM and 3.2 ± 0.2 µM
CC1(C)[C@@H]2CC[C@@]1(C)[C@H](NCCCCCCCCCCCCN[C@@H]1C[C@H]3CC[C@]1(C)C3(C)C)C2 [Compound 3e, N^1,N^12-bis((1R,2R,4R)-1,7,7-trimethylbicyclo[2.2.1]heptan-2-yl)dodecane-1,12-diamine] | 4.4 ± 0.3 µM
CN(CCCCCCN(C)[C@@H]1C[C@H]2CC[C@]1(C)C2(C)C)[C@@H]1C[C@H]2CC[C@]1(C)C2(C)C [Compound 4b, N^1,N^6-dimethyl-N^1,N^6-bis((1R,2R,4R)-1,7,7-trimethylbicyclo[2.2.1]heptan-2-yl) hexane-1,6-diamine] | 110.1 ± 10.4 µM
CC1(C)[C@@H]2CC[C@@]1(C)[C@H](Nc1ccc(Oc3ccc(N[C@@H]4C[C@H]5CC[C@]4(C)C5(C)C)cc3)cc1)C2 [Compound 3g, (1R,2R,4R)-1,7,7-trimethyl-N-(4-(4-((1R,2R,4R)-1,7,7-trimethylbicyclo[2.2.1]heptan-2-ylamino)phenoxy)phenyl)bicyclo[2.2.1]heptan-2-amine] | 207.6 ± 19.5 µM
CC1(C)[C@@H]2CC[C@@]1(C)/C(=N/CCCCCCCC/N=C1\C[C@H]3CC[C@]1(C)C3(C)C)C2 [Compound 2d, N^1E,N^8E-N^1,N^8-bis((1R,2R,4R)-1,7,7-trimethylbicyclo[2.2.1]heptan-2-ylidene)octane-1,8-diamine] | 24.2 ± 2.1 µM
CC1(C)[C@@H]2CC[C@@]1(C)/C(=N/c1ccc(Cc3ccc(N)cc3)cc1)C2 [Compound 5f, (E)-4-(4-aminobenzyl)-N-((1R,2R,4R)-1,7,7-trimethylbicyclo[2.2.1]heptan-2-ylidene)aniline] | 15.0 ± 1.2 µM
CC1(C)[C@@H]2CC[C@@]1(C)/C(=N/CCCCCC/N=C1\C[C@H]3CC[C@]1(C)C3(C)C)C2 [Compound 2b, N^1E,N^6E-N^1,N^6-bis((1R,2R,4R)-1,7,7-trimethylbicyclo[2.2.1]heptan-2-ylidene)hexane-1,6-diamine] | 15.1 ± 1.1 µM
CC1(C)[C@@H]2CC[C@@]1(C)/C(=N/CCC/N=C1\C[C@H]3CC[C@]1(C)C3(C)C)C2 [Compound 2a, N^1E,N^3E-N^1,N^3-bis((1R,2R,4R)-1,7,7-trimethylbicyclo[2.2.1]heptan-2-ylidene)propane-1,3-diamine] | 9.3 ± 0.8 µM
CN(CCCCCCCN(C)[C@@H]1C[C@H]2CC[C@]1(C)C2(C)C)[C@@H]1C[C@H]2CC[C@]1(C)C2(C)C [Compound 4c, N^1,N^7-dimethyl-N^1,N^7-bis((1R,2R,4R)-1,7,7-trimethylbicyclo[2.2.1]heptan-2-yl)heptane-1,7-diamine] | 40.4 ± 3.8 µM
CC1(C)[C@@H]2CC[C@@]1(C)[C@H](Nc1ccc(Cc3ccc(N[C@@H]4C[C@H]5CC[C@]4(C)C5(C)C)cc3)cc1)C2 [Compound 3f, (1R,2R,4R)-1,7,7-trimethyl-N-(4-(4-((1R,2R,4R)-1,7,7-trimethylbicyclo[2.2.1]heptan-2-ylamino)benzyl)phenyl)bicyclo[2.2.1]heptan-2-amine] | 153.2 ± 11.9 µM
CC(N)C12CC3CC(CC(C3)C1)C2.Cl (stereo not drawn) [Rimantadine, α-methyl-1-adamantylamine hydrochloride, reference compound] | 67.0 ± 4.9 µM
CC1(C)[C@@H]2CC[C@@]1(C)/C(=N/CCCCCCCCCCCC/N=C1\C[C@H]3CC[C@]1(C)C3(C)C)C2 [Compound 2e, N^1E,N^12E-N^1,N^12-bis((1R,2R,4R)-1,7,7-trimethylbicyclo[2.2.1]heptan-2-ylidene)dodecane-1,12-diamine] | 45.0 ± 3.9 µM
CC1(C)[C@@H]2CC[C@@]1(C)/C(=N/CCCCCCC/N=C1\C[C@H]3CC[C@]1(C)C3(C)C)C2 [Compound 2c, N^1E,N^7E-N^1,N^7-bis((1R,2R,4R)-1,7,7-trimethylbicyclo[2.2.1]heptan-2-ylidene)heptane-1,7-diamine] | 22.8 ± 2.3 µM
CC1(C)[C@@H]2CC[C@@]1(C)/C(=N/c1ccc(Oc3ccc(N)cc3)cc1)C2 [Compound 5g, (E)-4-(4-aminophenoxy)-N-((1R,2R,4R)-1,7,7-trimethylbicyclo[2.2.1]heptan-2-ylidene)aniline] | 4.2 ± 0.0 µM
CC1(C)[C@@H]2CC[C@@]1(C)/C(=N/c1ccc(Oc3ccc(/N=C4\C[C@H]5CC[C@]4(C)C5(C)C)cc3)cc1)C2 [Compound 2g, (E)-N-((1R,2R,4R)-1,7,7-trimethylbicyclo[2.2.1]heptan-2-ylidene)-4-(4-((E)-((1R,2R,4R)-1,7,7-trimethylbicyclo[2.2.1]heptan-2-ylidene)amino)phenoxy)aniline] | 373.4 ± 35.1 µM
CC1(C)[C@@H]2CC[C@@]1(C)[C@H](NCCCCCCN[C@@H]1C[C@H]3CC[C@]1(C)C3(C)C)C2 [Compound 3b, N^1,N^6-bis((1R,2R,4R)-1,7,7-trimethylbicyclo[2.2.1]heptan-2-yl)hexane-1,6-diamine] | 0.77 µM and 0.77 ± 0.1 µM
CC1(C)C2CC[C@@]1(C)C(=O)C2 [Compound 1, (1R)-(+)-camphor, reference compound] | 1644.7 ± 144.4 µM
NC12CC3CC(CC(C3)C1)C2 [Amantadine, 1-aminoadamantane, reference compound] | 64.2 ± 4.7 µM
CC1(C)[C@@H]2CC[C@@]1(C)/C(=N/c1ccc(Cc3ccc(/N=C4\C[C@H]5CC[C@]4(C)C5(C)C)cc3)cc1)C2 [Compound 2f, (E)-N-((1R,2R,4R)-1,7,7-trimethylbicyclo[2.2.1]heptan-2-ylidene)-4-(4-((E)-((1R,2R,4R)-1,7,7-trimethylbicyclo[2.2.1]heptan-2-ylidene)amino)benzyl)aniline] | 351.4 ± 32.3 µM
